From PubChem BioAssay (NCI)
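Exposure lasted 48 hours, with cells grown in 96-well plates and compounds tested at five concentrations. The concentration for full growth arrest is given as TGI.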

Experiments:
Test in all cases: inhibition of tumour cell growth, NCI panel, 48 h
[1] = system: BT-549 breast
[2] = system: EKVX NSCLC
[3] = system: HT29 colon
[4] = system: NCI-H522 lung
[5] = system: HOP-62 NSCLC
[6] = system: T-47D breast
[7] = system: SN12C renal
[8] = system: HCC-2998 colon
[9] = system: SK-MEL-28 melanoma
[10] = system: PC-3 prostate
[11] = system: SK-MEL-2 melanoma

`N#CCc1nc2cc(C(F)(F)F)ccc2s1` was tested, and the TGI [1] was greater than 100 µM, the TGI [2] was greater than 100 µM and the TGI [3] was greater than 100 µM. It also gave a TGI [4] of 34.5 µM, a TGI [5] greater than 100 µM and a TGI [6] greater than 100 µM. The TGI [7] was greater than 100 µM.

`CC(C)C1=C(Cc2ccccc2)C(=O)O/C1=C\c1ccc(O)c(Cl)c1` gave a TGI [1] of 36.7 µM, a TGI [2] of 30.3 µM and a TGI [3] of 32.8 µM. For the same compound, the TGI [8] was 28.7 µM, the TGI [5] was 31.7 µM and the TGI [9] was 30.9 µM. For the same compound, the TGI [10] was 31.7 µM and the TGI [7] was 30.7 µM.

`O=C(c1ccccc1)c1c(C(F)(F)F)n([O-])c2cc(F)c(F)cc2[n+]1=O` gave a TGI [2] of 5 µM, a TGI [3] greater than 100 µM and a TGI [4] greater than 7.96 µM. The TGI [5] was 2.26 µM, the TGI [6] was greater than 36.7 µM and the TGI [11] was 4.44 µM. For the same compound, the TGI [9] was greater than 100 µM and the TGI [10] was 2.44 µM.

Work on `COc1cc(C(O)C(=O)c2cnc3cc([N+](=O)[O-])ccc3n2)ccc1O` (stereo not drawn) yielded a TGI [2] greater than 100 µM, a TGI [3] greater than 100 µM and a TGI [8] greater than 100 µM. The TGI [5] was greater than 100 µM, the TGI [11] was greater than 100 µM and the TGI [7] was greater than 100 µM.

With `CN(C)C=NCC(O)c1ccccc1` (stereo not drawn) the TGI [1] was greater than 100 µM, the TGI [2] was greater than 100 µM and the TGI [3] was greater than 100 µM. For the same compound, the TGI [4] was greater than 100 µM, the TGI [5] was greater than 100 µM and the TGI [6] was greater than 100 µM. It also gave a TGI [11] greater than 100 µM, a TGI [9] greater than 100 µM and a TGI [10] greater than 100 µM. It also gave a TGI [7] greater than 100 µM.

For `C=CCOCn1ccc(N)nc1=O`, the TGI [1] was greater than 100 µM, the TGI [2] was greater than 100 µM and the TGI [3] was greater than 100 µM. For the same compound, the TGI [8] was greater than 100 µM, the TGI [4] was greater than 100 µM and the TGI [5] was greater than 100 µM. It also gave a TGI [6] greater than 100 µM, a TGI [9] greater than 100 µM and a TGI [10] greater than 100 µM. For the same compound, the TGI [7] was greater than 100 µM.

For `Cc1ccc(NC(=O)/C(=N/NC(=O)C[N+](C)(C)C)c2nc3ccccc3[nH]c2=O)cc1`, the TGI [2] was greater than 100 µM, the TGI [3] was greater than 100 µM and the TGI [8] was greater than 100 µM. For the same compound, the TGI [5] was greater than 100 µM, the TGI [11] was greater than 100 µM and the TGI [9] was greater than 100 µM. It also gave a TGI [7] greater than 100 µM.

In the case of `C[N+]1([O-])[C@H]2CC(OC(=O)[C@H](CO)c3ccccc3)C[C@H]1[C@H]1O[C@H]12` (stereo partly drawn), the TGI [1] is reported as greater than 100 µM, the TGI [2] is reported as greater than 100 µM and the TGI [3] is reported as greater than 100 µM. The TGI [4] was greater than 100 µM, the TGI [5] was greater than 100 µM and the TGI [6] was greater than 100 µM. For the same compound, the TGI [11] was greater than 100 µM, the TGI [9] was greater than 100 µM and the TGI [10] was greater than 100 µM. The TGI [7] was greater than 100 µM.

In the case of `S=C(N/N=C(\C(=N/NC(=S)N1CCCCC1)c1ccccn1)c1ccccn1)N1CCCCC1`, the TGI [1] is reported as greater than 100 µM, the TGI [2] is reported as greater than 100 µM and the TGI [3] is reported as greater than 100 µM. It also gave a TGI [8] greater than 100 µM, a TGI [4] greater than 100 µM and a TGI [5] greater than 100 µM. For the same compound, the TGI [9] was greater than 100 µM and the TGI [10] was greater than 100 µM.

`CN1C=COC1N=C1CCCCC1` (stereo not drawn) showed a TGI [2] greater than 100 µM, a TGI [3] greater than 100 µM and a TGI [8] greater than 100 µM. It also gave a TGI [4] greater than 100 µM, a TGI [5] greater than 100 µM and a TGI [6] greater than 100 µM. For the same compound, the TGI [11] was greater than 100 µM, the TGI [9] was greater than 100 µM and the TGI [10] was greater than 100 µM. The TGI [7] was greater than 100 µM.

For `COc1ccc(C2C(C#N)=C(S)N(C3OC(CO)C(O)C(O)C3O)C(C)=C2C(C)=O)cc1` (stereo not drawn), the TGI [1] was greater than 100 µM, the TGI [3] was greater than 100 µM and the TGI [8] was greater than 100 µM. For the same compound, the TGI [4] was greater than 100 µM, the TGI [5] was greater than 100 µM and the TGI [6] was 97.1 µM. For the same compound, the TGI [11] was greater than 100 µM, the TGI [9] was greater than 100 µM and the TGI [10] was greater than 100 µM. The TGI [7] was greater than 100 µM.

`Cn1cnc(SC2=C3C(=O)C=C4S[C@H]5C[C@]42c2c(c(O)c4c6c2=[N+]3CCC=6C=N4)N5)c1CC(N)C(=O)O` (stereo partly drawn) showed a TGI [2] of 32.9 µM, a TGI [3] of 17.1 µM and a TGI [8] of 29.8 µM. The TGI [4] was 16.4 µM, the TGI [11] was 28.2 µM and the TGI [9] was 31.9 µM. The TGI [7] was 10.2 µM.

For `COc1cc2[nH]c(=O)c3cc(C)cc4c(Cl)nc(c1OC)c2c43`, the TGI [1] was greater than 100 µM, the TGI [2] was greater than 100 µM and the TGI [3] was greater than 100 µM. The TGI [8] was greater than 100 µM, the TGI [4] was greater than 100 µM and the TGI [5] was 75.7 µM. It also gave a TGI [11] greater than 100 µM, a TGI [9] greater than 100 µM and a TGI [10] greater than 100 µM.

`O=C(Nc1ccc(Sc2ccc(N=Nc3c(O)c(S(=O)(=O)O)cc4cc(S(=O)(=O)O)ccc34)cc2)cc1)c1ccc(N=Nc2c(O)c(S(=O)(=O)O)cc3cc(S(=O)(=O)O)ccc23)cc1` was tested, and the TGI [2] was greater than 100 µM, the TGI [3] was greater than 100 µM and the TGI [8] was greater than 100 µM. The TGI [4] was 35.4 µM, the TGI [5] was greater than 100 µM and the TGI [11] was 96.8 µM. The TGI [9] was 86.5 µM and the TGI [7] was greater than 100 µM.

For `COc1ccc(-c2nc(-c3cnccn3)n(Cc3ccccc3)n2)cc1`, the TGI [1] was greater than 100 µM, the TGI [3] was greater than 100 µM and the TGI [8] was greater than 100 µM. The TGI [4] was greater than 100 µM, the TGI [5] was greater than 100 µM and the TGI [6] was greater than 100 µM. For the same compound, the TGI [9] was greater than 100 µM, the TGI [10] was greater than 100 µM and the TGI [7] was greater than 100 µM.

Work on `CC1CCOc2ccc(cc2)C=Nc2ccc(cc2)-c2ccc(cc2)N=Cc2ccc(cc2)OCC1` (stereo not drawn) yielded a TGI [1] greater than 100 µM, a TGI [2] greater than 100 µM and a TGI [3] greater than 100 µM. For the same compound, the TGI [8] was greater than 100 µM, the TGI [4] was greater than 100 µM and the TGI [11] was greater than 100 µM. The TGI [9] was greater than 100 µM, the TGI [10] was greater than 100 µM and the TGI [7] was greater than 100 µM.

For `CC1C(C#N)(C#N)C(C#N)=C(N)C1(C)[N+](=O)[O-]` (stereo not drawn), the TGI [1] was greater than 100 µM, the TGI [2] was 42.6 µM and the TGI [3] was greater than 100 µM. It also gave a TGI [8] greater than 100 µM, a TGI [4] greater than 100 µM and a TGI [5] greater than 100 µM. For the same compound, the TGI [11] was greater than 100 µM, the TGI [10] was greater than 100 µM and the TGI [7] was greater than 100 µM.

For `CC(=O)c1ccc2c3c1O[C@H]1c4[nH]c5ccccc5c4C[C@@]4(O)[C@@H](C2)N(CC2CC2)CC[C@]314`, the TGI [1] was 29.6 µM, the TGI [2] was 45.3 µM and the TGI [3] was 20 µM. For the same compound, the TGI [4] was 35.3 µM, the TGI [5] was 36.5 µM and the TGI [6] was 44 µM. The TGI [11] was 30.9 µM, the TGI [9] was greater than 100 µM and the TGI [10] was 21.7 µM. For the same compound, the TGI [7] was 34.4 µM.

For `CC1=NN(C(=O)Cc2ccccc2)C(=O)/C1=C\c1ccccc1O`, the TGI [2] was greater than 100 µM, the TGI [3] was greater than 100 µM and the TGI [8] was greater than 100 µM. It also gave a TGI [4] greater than 100 µM, a TGI [5] greater than 100 µM and a TGI [11] greater than 100 µM. It also gave a TGI [9] greater than 100 µM and a TGI [7] greater than 100 µM.

With `OCC1OC(c2ccccc2)CC1O` (stereo not drawn) the TGI [2] was greater than 100 µM, the TGI [3] was greater than 100 µM and the TGI [11] was greater than 100 µM. It also gave a TGI [9] greater than 100 µM and a TGI [7] greater than 100 µM.

`O=c1[nH]nc(Cc2ccc(Cl)cc2)n1/N=C/c1c[nH]c2ccccc12` showed a TGI [2] greater than 100 µM, a TGI [3] greater than 100 µM and a TGI [8] greater than 100 µM. The TGI [4] was greater than 100 µM, the TGI [5] was greater than 100 µM and the TGI [6] was greater than 100 µM. It also gave a TGI [11] greater than 100 µM, a TGI [9] greater than 100 µM and a TGI [10] greater than 100 µM. The TGI [7] was greater than 100 µM.

`Cc1ccc(N=C2SC(=NN(C)C)SC2=Nc2ccc(C)cc2)cc1` was tested, and the TGI [2] was greater than 100 µM, the TGI [3] was greater than 100 µM and the TGI [8] was greater than 100 µM. The TGI [4] was greater than 100 µM, the TGI [5] was greater than 100 µM and the TGI [6] was greater than 100 µM. The TGI [11] was greater than 100 µM, the TGI [9] was greater than 100 µM and the TGI [10] was greater than 100 µM. It also gave a TGI [7] greater than 100 µM.
